{"source": "patent US9232796B2", "about": "“Herbicidal compositions comprising 4-amino-3-chloro-5-fluoro-6-(4-chloro-2-fluoro-3-methoxyphenyl) pyridine-2-carboxylic acid or a derivative thereof and acetyl-CoA carboxylase (ACCase) inhibitors” (DOW AGROSCIENCES LLC, priority 2012, dated 2016)", "key": {"SCPJU": {"test_system": "SCPJU", "assay": "Example II in-water applied, greenhouse, transplanted paddy rice weeds", "format": "in vivo, Schoenoplectus juncoides (Roxb.) Palla", "method": "Weed seeds or nutlets of the desired test plant species were planted in puddled soil (mud) prepared by mixing a shredded, non-sterilized mineral soil (50.5 percent silt, 25.5 percent clay, and 24 percent sand, with a pH of about 7.6 and an organic matter content of about 2.9 percent) and water at a 1:1 volumetric ratio. The prepared mud was dispensed in 365 mL aliquots into 16-ounce (oz.) non-perforated plastic pots with a surface area of 86.59 square centimeters (cm^2) leaving a headspace of 3 centimeters (cm) in each pot. Mud was allowed to dry overnight prior to planting or transplanting. Rice seeds were planted in Sun Gro MetroMix® 306 planting mixture, which typically has a pH of 6.0 to 6.8 and an organic matter content of about 30 percent, in plastic plug trays. Seedlings at the second or third leaf stage of growth were transplanted into 860 mL of mud contained in 32-oz. non-perforated plastic pots with a surface area of 86.59 cm^2 4 days prior to herbicide application. The paddy was created by filling the headspace of the pots with 2.5 to 3 cm of water. […] The plants were grown for 4-22 days in a greenhouse with an approximate 14 hr. photoperiod which was maintained at about 29° C. during the day and 26° C. during the night. Nutrients were added as Osmocote® (19:6:12, N:P:K+minor nutrients) at 2 g per 16-oz. pot and 4 g per 32-oz. pot. Water was added on a regular basis to maintain the paddy flood, and supplemental lighting was provided with overhead metal halide 1000-Watt lamps as necessary. The plants were employed for testing when they reached the first through fourth true leaf stage.\nTreatments consisted of the acid or esters of 4-amino-3-chloro-5-fluoro-6-(4-chloro-2-fluoro-3-methoxy-phenyl)pyridine-2-carboxylic acid (compound A) each formulated as an SC (suspension concentrate) and various herbicidal components alone and in combination.\n(§1) For formulated compounds, a measured amount was placed in an individual 100 or 200 mL glass vial and was dissolved in a volume of 1.25% (v/v) Agri-Dex® crop oil concentrate to obtain application solutions.\n(§2) Applications were made by injecting with a pipetter appropriate amounts of the application solutions, individually and sequentially, into the aqueous layer of the paddy. Control plants were treated in the same manner with the solvent blank. Applications were made so that all treated plant material received the same concentrations of acetone and crop oil concentrate.\nThe treated plants and control plants were placed in a greenhouse as described above and water was added as needed to maintain a paddy flood. After approximately 3 weeks the condition of the test plants as compared with that of the untreated plants was determined visually and scored on a scale of 0 to 100 percent where 0 corresponds to no injury or growth inhibition and 100 corresponds to complete kill.\nColby's equation was used to determine the herbicidal effects expected from the mixtures (Colby, S. R. 1967. Calculation of the synergistic and antagonistic response of herbicide combinations. Weeds 15:20-22.).\nThe following equation was used to calculate the expected activity of mixtures containing two active ingredients, A and B: Expected=A+B−(A×B/100)"}, "ECHOR": {"test_system": "ECHOR", "assay": "Example VI in-water applied ternary mixtures, greenhouse, transplanted paddy rice weeds", "format": "in vivo, Echinochloa oryzoides (Ard.) Fritsch", "method": "Weed seeds or nutlets of the desired test plant species were planted in puddled soil (mud) prepared by mixing a shredded, non-sterilized mineral soil (50.5 percent silt, 25.5 percent clay, and 24 percent sand, with a pH of about 7.6 and an organic matter content of about 2.9 percent) and water at a 1:1 volumetric ratio. The prepared mud was dispensed in 365 mL aliquots into 16-ounce (oz.) non-perforated plastic pots with a surface area of 86.59 square centimeters (cm^2) leaving a headspace of 3 centimeters (cm) in each pot. Mud was allowed to dry overnight prior to planting or transplanting. Rice seeds were planted in Sun Gro MetroMix® 306 planting mixture, which typically has a pH of 6.0 to 6.8 and an organic matter content of about 30 percent, in plastic plug trays. Seedlings at the second or third leaf stage of growth were transplanted into 860 mL of mud contained in 32-oz. non-perforated plastic pots with a surface area of 86.59 cm^2 4 days prior to herbicide application. The paddy was created by filling the headspace of the pots with 2.5 to 3 cm of water. When required to ensure good germination and healthy plants, a fungicide treatment and/or other chemical or physical treatment was applied. The plants were grown for 4-22 days in a greenhouse with an approximate 14 hr. photoperiod which was maintained at about 29° C. during the day and 26° C. during the night. Nutrients were added as Osmocote® (19:6:12, N:P:K+minor nutrients) at 2 g per 16-oz. pot and 4 g per 32-oz. pot. Water was added on a regular basis to maintain the paddy flood, and supplemental lighting was provided with overhead metal halide 1000-Watt lamps as necessary. The plants were employed for testing when they reached the first through fourth true leaf stage.\nTreatments consisted of the benzyl ester of 4-amino-3-chloro-5-fluoro-6-(4-chloro-2-fluoro-3-methoxy-phenyl)pyridine-2-carboxylic acid (Compound A), formulated as an SC (suspension concentrate), an ACCase inhibitor herbicide, and a third herbicidal component, each applied alone and in ternary combination. Forms of compound A were applied on an acid equivalent basis.\nThe ACCase inhibitor component was applied on an active ingredient basis and included cyhalofop-R-butyl formulated as Clincher® G and metamifop formulated as Metamifop EC. Other herbicidal components were applied on an active ingredient or acid equivalent basis depending on the compound and included penoxsulam formulated as Grasp® SC, bentazon sodium formulated as Basagran®, triclopyr […] (TEA) salt formulated as Grandstand® R, benzobicyclon formulated as Benzobicyclon, benfuresate formulated as Full Slot® WG, pyraclonil formulated as Pyraclon® Flowable, mefenacet (technical grade material), and pretilachlor (technical grade material).\nTreatment requirements for each compound or herbicidal component were calculated based upon the rates being tested, the concentration of active ingredient or acid equivalent in the formulation, an application volume of 1 mL per component per pot, and an application area of 86.59 cm^2 per pot.\nas §1\nFor technical grade compounds, a weighed amount was placed in an individual 100 to 200 mL glass vial and was dissolved in a volume of acetone to obtain concentrated stock solutions.\nas §2, with “solutions,” for “solutions, individually and sequentially,”\nThe treated plants and control plants were placed in a greenhouse as described above and water was added as needed to maintain a paddy flood. […]"}}}
{"smiles": "COc1c(Cl)ccc(-c2nc(C(=O)O)c(Cl)c(N)c2F)c1F", "note": "[Compound A Acid, 4-amino-3-chloro-6-(4-chloro-2-fluoro-3-methoxyphenyl)-5-fluoropyridine-2-carboxylic acid]", "values": [{"measurement": "Visual Weed Control (%) - 25 DAA SCPJU Obs", "setting": "SCPJU; 8.75 gae/ha in-water", "result": 65, "unit": "%"}, {"measurement": "Visual Weed Control (%) - 25 DAA SCPJU Obs", "setting": "SCPJU; 17.5 gae/ha in-water", "result": 80, "unit": "%"}, {"measurement": "Visual Weed Control (%) - 25 DAA SCPJU Obs", "setting": "SCPJU; 35 gae/ha in-water", "result": 95, "unit": "%"}, {"measurement": "Visual Weed Control (%) - 20 DAA SCPJU Obs", "setting": "SCPJU; in-water, 8.75 gae/ha", "result": 70, "unit": "%"}, {"measurement": "Visual Weed Control (%) - 21 DAA SCPJU Obs", "setting": "SCPJU; in-water, 8.75 gae/ha", "result": 65, "unit": "%"}, {"measurement": "Visual Weed Control (%) - 22 DAA SCPJU Obs", "setting": "SCPJU; in-water, 16 gae/ha", "result": 70, "unit": "%"}, {"measurement": "Visual Weed Control (%) - 20 DAA SCPJU Obs", "setting": "SCPJU; in-water, 17.5 gae/ha", "result": 95, "unit": "%"}, {"measurement": "Visual Weed Control (%) - 21 DAA SCPJU Obs", "setting": "SCPJU; in-water, 17.5 gae/ha", "result": 90, "unit": "%"}, {"measurement": "Visual Weed Control (%) - 20 DAA SCPJU Obs", "setting": "SCPJU; in-water, 35 gae/ha", "result": 95, "unit": "%"}]}
{"smiles": "C[C@@H](Oc1ccc(Oc2nc3ccc(Cl)cc3o2)cc1)C(=O)N(C)c1ccccc1F", "note": "[Metamifop, (2R)-2-[4-[(6-chloro-2-benzoxazolyl)oxy]phenoxy]-N-(2-fluorophenyl)-N-methylpropanamide]", "values": [{"measurement": "Visual Weed Control (%) - 24 DAA ECHOR Obs", "setting": "ECHOR; Table 71, 25 gai/ha", "result": 10, "unit": "%"}, {"measurement": "Visual Weed Control (%) - 24 DAA ECHOR Obs", "setting": "ECHOR; Table 71, 50 gai/ha", "result": 18, "unit": "%"}, {"measurement": "Visual Weed Control (%) - 21 DAA SCPJU Obs", "setting": "SCPJU; in-water, 75 gai/ha", "result": 0, "unit": "%"}, {"measurement": "Visual Weed Control (%) - 21 DAA SCPJU Obs", "setting": "SCPJU; in-water, 150 gai/ha", "result": 0, "unit": "%"}]}
{"smiles": "CCC/C(=N\\OCC(C)Oc1ccc(Cl)cc1)C1=C(O)CC(C2CCCSC2)CC1=O", "note": "(stereo not drawn) [Profoxydim, 2-[1-[[2-(4-chlorophenoxy)propoxy]imino]butyl]-3-hydroxy-5-(tetrahydro-2H-thiopyran-3-yl)-2-cyclohexen-1-one, reference compound]", "values": [{"measurement": "Visual Weed Control (%) - 22 DAA SCPJU Obs", "setting": "SCPJU; in-water, 50 gai/ha", "result": 0, "unit": "%"}, {"measurement": "Visual Weed Control (%) - 22 DAA SCPJU Obs", "setting": "SCPJU; in-water, 100 gai/ha", "result": 0, "unit": "%"}]}
{"smiles": "CCCCOC(=O)[C@@H](C)Oc1ccc(Oc2ccc(C#N)cc2F)cc1", "note": "[Cyhalofop-butyl, butyl(2R)-2-[4-(4-cyano-2-fluorophenoxy)phenoxy]propanoate, reference compound]", "values": [{"measurement": "Visual Weed Control (%) - 24 DAA ECHOR Obs", "setting": "ECHOR; Table 67, 90 gai/ha", "result": 25, "unit": "%"}, {"measurement": "Visual Weed Control (%) - 25 DAA SCPJU Obs", "setting": "SCPJU; 90 gai/ha, in-water", "result": 0, "unit": "%"}, {"measurement": "Visual Weed Control (%) - 25 DAA SCPJU Obs", "setting": "SCPJU; 180 gai/ha, in-water", "result": 0, "unit": "%"}]}
{"smiles": "COc1c(Cl)ccc(-c2nc(C(=O)OCc3ccccc3)c(Cl)c(N)c2F)c1F", "note": "[Compound A Benzyl Ester, benzyl ester of 4-amino-3-chloro-5-fluoro-6-(4-chloro-2-fluoro-3-methoxy-phenyl)pyridine-2-carboxylic acid]", "values": [{"measurement": "Visual Weed Control (%) - 24 DAA ECHOR Obs", "setting": "ECHOR; Table 67, 4 gae/ha", "result": 0, "unit": "%"}, {"measurement": "Visual Weed Control (%) - 24 DAA ECHOR Obs", "setting": "ECHOR; Table 67, 8 gae/ha", "result": 0, "unit": "%"}, {"measurement": "Visual Weed Control (%) - 24 DAA ECHOR Obs", "setting": "ECHOR; Table 67, 16 gae/ha", "result": 10, "unit": "%"}, {"measurement": "Visual Weed Control (%) - 24 DAA ECHOR Obs", "setting": "ECHOR; Table 71, 8 gae/ha", "result": 10, "unit": "%"}, {"measurement": "Visual Weed Control (%) - 24 DAA ECHOR Obs", "setting": "ECHOR; Table 71, 16 gae/ha", "result": 25, "unit": "%"}, {"measurement": "Visual Weed Control (%) - 21 DAA SCPJU Obs", "setting": "SCPJU; in-water, 4.38 gae/ha", "result": 70, "unit": "%"}]}
